{"source": "patent US20050208496A1", "about": "“Methods of testing for bronchial asthma or chronic obstructive pulmonary disease” (Genox Research, Inc., priority 2002, published 2005)", "tested_on": "respiratory epithelial cells", "details": "lot 2 Day 7 AI", "data": [{"substance": "IL-13: human IL-13 (Peprotech, Inc.) added to the medium at 50 ng/mL to stimulate respiratory epithelial cells", "values": [{"measurement": "AI770116 (70124_at) expression change", "result": "−5.1"}, {"measurement": "AI798733 (64163_at) expression change", "result": "−3.3"}, {"measurement": "AI829641 (84270_at) expression change", "result": "−39.5"}, {"measurement": "AI917602 (49985_at) expression change", "result": "−4.1"}, {"measurement": "AI923984 33546_at expression change", "result": "−4.4"}, {"measurement": "AI948584 48086_at expression change", "result": "−13.1"}, {"measurement": "AI971023 48539_at expression change", "result": "−5.3"}, {"measurement": "AI984780 (52384_s_at) expression change", "result": "−4"}, {"measurement": "AL040936 (45684_at) expression change", "result": "−4.5"}, {"measurement": "AQP5 32909_at expression change", "result": "−4.2"}, {"measurement": "ARHGEF4 36524_at expression change", "result": "−6.6"}, {"measurement": "ARHV (82231_at) expression change", "result": "−4"}, {"measurement": "AW022213 (79520_at) expression change", "result": "−5.4"}, {"measurement": "AW025596 52634_at expression change", "result": "−9"}, {"measurement": "AW025596 52637_g_at expression change", "result": "−20.6"}, {"measurement": "B4GALT5 56373_at expression change", "result": "−2.5"}, {"measurement": "BPGM (51261_at) expression change", "result": "−2.4"}, {"measurement": "CBLB 514_at expression change", "result": "−3.2"}, {"measurement": "CBLB 35632_at expression change", "result": "−2.1"}, {"measurement": "COL12A1 (44730_at) expression change", "result": "−6.8"}, {"measurement": "CRABP-II 1057_at expression change", "result": "−12.7"}, {"measurement": "CRABP-II 41783_at expression change", "result": "−11.3"}, {"measurement": "Clorf28 50075_at expression change", "result": "−5.7"}, {"measurement": "DHCR24 (74557_s_at) expression change", "result": "−6.8"}, {"measurement": "DKFZp434K1210 44682_at expression change", "result": "−2.4"}, {"measurement": "DREV1 (63813_at) expression change", "result": "−2.1"}, {"measurement": "DSC3 (79615_at) expression change", "result": "−2.4"}, {"measurement": "DSC3a, b 47119_at expression change", "result": "−2.7"}, {"measurement": "DSC3a, b 79615_at expression change", "result": "−2.4"}, {"measurement": "EIF4EBP1 (54152_at) expression change", "result": "−2.7"}, {"measurement": "EVPK 39569_at expression change", "result": "−2.7"}, {"measurement": "FKBP5 (46271_at) expression change", "result": "−21.2"}, {"measurement": "FLJ10298 (62490_f_at) expression change", "result": "−5.4"}, {"measurement": "FLJ10718 52072_at expression change", "result": "−8.7"}, {"measurement": "FLJ12541 43546_at expression change", "result": "−7.4"}, {"measurement": "FLJ20048 (49196_at) expression change", "result": "−2"}, {"measurement": "FLJ20373 54030_at expression change", "result": "−1.7"}, {"measurement": "FLJ20500 43853_at expression change", "result": "−2.4"}, {"measurement": "FLJ23309 45563_f_at expression change", "result": "−2.4"}, {"measurement": "FLJ23516 47534_at expression change", "result": "−3.2"}, {"measurement": "GABRP 40339_at expression change", "result": "−28"}, {"measurement": "GAS41 (64121_at) expression change", "result": "−2"}, {"measurement": "GJA1 32531_at expression change", "result": "−5.5"}, {"measurement": "GK (61873_at) expression change", "result": "−2.1"}, {"measurement": "GPD2 42720_at expression change", "result": "−2.8"}, {"measurement": "GSTA3 58023 at expression change", "result": "−9.1"}, {"measurement": "HEY1 44783_s_at expression change", "result": "−9.2"}, {"measurement": "HIN-1 (46200_at) expression change", "result": "−38.7"}, {"measurement": "HSPC195 44705_at expression change", "result": "−5.1"}, {"measurement": "ID1 36619_r_at expression change", "result": "−2.5"}, {"measurement": "IL20RA 42969_at expression change", "result": "−2.9"}, {"measurement": "IVL 36355_at expression change", "result": "−10.6"}, {"measurement": "K1IAA1102 (64345_s_at) expression change", "result": "−4.9"}, {"measurement": "KCNMA1 (47575_g_at) expression change", "result": "−7"}, {"measurement": "KCNMA1 (53796_at) expression change", "result": "−6.1"}, {"measurement": "KIAA0878 (48793_at) expression change", "result": "−2"}, {"measurement": "KIAA1376 (62972_at) expression change", "result": "−3.9"}, {"measurement": "KIAA1376 (64047_at) expression change", "result": "−4.2"}, {"measurement": "KIAA1547 58531_g_at expression change", "result": "−2.6"}, {"measurement": "KLF7 (42769_at) expression change", "result": "−4.7"}, {"measurement": "KRT6B (62998_at) expression change", "result": "−5.5"}, {"measurement": "LCE 45605_at expression change", "result": "−2.6"}, {"measurement": "LMO4 1452_at expression change", "result": "−3.9"}, {"measurement": "LOC51297 (49616_at) expression change", "result": "−24.3"}, {"measurement": "LOC51297 (55440_at) expression change", "result": "−33.7"}, {"measurement": "LOC51297 (55442_g_at) expression change", "result": "−33.7"}, {"measurement": "LOC51316 (63342_at) expression change", "result": "−5"}, {"measurement": "LOC55893 (64071_at) expression change", "result": "−2.6"}, {"measurement": "LOC129642 (42065_at) expression change", "result": "−4.9"}, {"measurement": "LOC129642 (58288_at) expression change", "result": "−4.5"}, {"measurement": "LOC131177 (43849_s_at) expression change", "result": "−13.3"}, {"measurement": "LOC131177 (45394_s_at) expression change", "result": "−7.1"}, {"measurement": "MGC12536 46924_at expression change", "result": "−3.1"}, {"measurement": "MGC14128 55924_at expression change", "result": "−4.1"}, {"measurement": "MGC14128 (51669_r_at) expression change", "result": "−5"}, {"measurement": "MGC14597 (46030_at) expression change", "result": "−5.4"}, {"measurement": "MGC16207 43412_s_at expression change", "result": "−2.8"}, {"measurement": "MGC16207 (65876_at) expression change", "result": "−3.4"}, {"measurement": "N52554 47432_at expression change", "result": "−1.7"}, {"measurement": "N71183 52473_at expression change", "result": "−3"}, {"measurement": "PR01489 57777_at expression change", "result": "−4.5"}, {"measurement": "PSCA (63958_at) expression change", "result": "−9.8"}, {"measurement": "RGC32 (57044_s_at) expression change", "result": "−2.4"}, {"measurement": "RIN1 1778_g_at expression change", "result": "−7.5"}, {"measurement": "SCNN1B 39682_at expression change", "result": "−15"}, {"measurement": "SCYB14 (65823_at) expression change", "result": "−2.5"}, {"measurement": "SEMA4B (46709_at) expression change", "result": "−2.5"}, {"measurement": "SERPINA3 (75248_at) expression change", "result": "−46.4"}, {"measurement": "SLC11A3 (45826_at) expression change", "result": "−3.8"}, {"measurement": "SLC34A2 (48048_at) expression change", "result": "−4.3"}, {"measurement": "SPON2 52576_s_at expression change", "result": "−5.8"}, {"measurement": "SPRR1B 37160_at expression change", "result": "−2.8"}, {"measurement": "STEAP 40297_at expression change", "result": "−3.7"}, {"measurement": "T52027 (63150_at) expression change", "result": "−3.5"}, {"measurement": "TGFBI (68339_at) expression change", "result": "−4.9"}, {"measurement": "TNFAIP2 (74633_at) expression change", "result": "−4.2"}, {"measurement": "TNNT1 36113_s_at expression change", "result": "−12.2"}, {"measurement": "TNRC3 41246_at expression change", "result": "−5"}, {"measurement": "TPM1 36790_at expression change", "result": "−4.8"}, {"measurement": "TPM1 36791_g_at expression change", "result": "−6"}, {"measurement": "TPM1 36792_at expression change", "result": "−6.3"}, {"measurement": "UCP2 37591_at expression change", "result": "−45.5"}, {"measurement": "UGB 39220_at expression change", "result": "−62.8"}, {"measurement": "VEGFC 1934_s_at expression change", "result": "−4.3"}, {"measurement": "VIM 34091_s_at expression change", "result": "−11.6"}, {"measurement": "W55956 46700_at expression change", "result": "−2.7"}, {"measurement": "W72331 49486 at expression change", "result": "−11.4"}]}]}
